Legend:
Assay in all cases: Post-emergence test, greenhouse
Format in all cases: in vivo
Veronica persica = conditions: I1 500, dicamba 30, mixture 500 + 30 g a.i./ha, evaluation 20 days after application
Method: (§1) The herbicidal action to be expected We for a given combination of two herbicides can be calculated as follows (see COLBY, S. R., “Calculating synergistic and antagonistic response of herbicide combinations”, Weeds 15, pages 20-22, 1967): […] Post-emergence application of mixtures of a herbicide of formula I wherein R is CH3; […] R2 is 3-acetonitrile; and R3 and R4 are hydrogen (=herbicide no. […] The test plants are grown to the 2- to 3-leaf stage in plastics pots under greenhouse conditions. A standard soil is used as cultivation substrate. At the 2- to 3-leaf stage, the herbicides are applied to the test plants on their own and as a mixture. The application is carried out using an aqueous suspension of the test compounds in 500 litres of water/ha. The rates of application depend on the optimum doses ascertained under field conditions and greenhouse conditions.

Stellaria media = conditions: I1 500, dicamba 30, mixture 500 + 30 g a.i./ha, evaluation 20 days after application
Method: as §1

winter barley = conditions: I1 500, dicamba 30, mixture 500 + 30 g a.i./ha, evaluation 20 days after application
Method: as §1

Raphnus raphanistrum = conditions: I1 500, dicamba 30, mixture 500 + 30 g a.i./ha, evaluation 20 days after application
Method: as §1

Viola tricolor = conditions: I1 500, dicamba 30, mixture 500 + 30 g a.i./ha, evaluation 20 days after application
Method: as §1

Galium aparine = conditions: evaluation 20 days after application
Text: (§2) The herbicidal action to be expected We for a given combination of two herbicides can be calculated as follows (see COLBY, S. R., “Calculating synergistic and antagonistic response of herbicide combinations”, Weeds 15, pages 20-22, 1967):
(§3) Post-emergence application of mixtures of a herbicide of formula I wherein R is CH3; R1 is 4-fluorine; R2 is 3-acetonitrile; and R3 and R4 are hydrogen (=herbicide no. 11) with the co-herbicide dicamba at 500 g/ha and 30 g/ha, respectively, in Table B1, and of a herbicide of formula I wherein R is CH3; R1 is 4-fluorine; R2 is 3-acetonitrile; and R3 and R4 are hydrogen (=herbicide no. I1) with the co-herbicide triasulfuron at 250 g/ha and 3.75 g.ha, respectively, in Table B2.
(§4) The test plants are grown to the 2- to 3-leaf stage in plastics pots under greenhouse conditions. A standard soil is used as cultivation substrate. At the 2- to 3-leaf stage, the herbicides are applied to the test plants on their own and as a mixture. The application is carried out using an aqueous suspension of the test compounds in 500 litres of water/ha. The rates of application depend on the optimum doses ascertained under field conditions and greenhouse conditions. […]

winter wheat = test system: winter wheat
Text: as §2, §3, §4

Matricaria chamomilla = conditions: I1 250, triasulfuron 3.5, mixture 250 + 3.75 g a.i./ha, evaluation 20 days after application
Text: as §2, §3, §4

Polygonum convolvulus = conditions: I1 250, triasulfuron 3.5, mixture 250 + 3.75 g a.i./ha, evaluation 20 days after application
Text: as §2, §3, §4

Lamium purpureum = conditions: I1 250, triasulfuron 3.5, mixture 250 + 3.75 g a.i./ha, evaluation 20 days after application
Text: as §2, §3, §4

hard wheat = conditions: I1 250, triasulfuron 3.5, mixture 250 + 3.75 g a.i./ha, evaluation 10 days after application
Text: as §2, §3, §4

Kochia scoparia = conditions: I1 250, triasulfuron 3.5, mixture 250 + 3.75 g a.i./ha, evaluation 20 days after application
Text: as §2, §3, §4

Capsella bursa-pastoris = conditions: I1 250, triasulfuron 3.5, mixture 250 + 3.75 g a.i./ha, evaluation 20 days after application
Text: as §2, §3, §4

With `COc1c(Cl)ccc(Cl)c1C(=O)O` [dicamba] the “% action, Veronica persica” value (Veronica persica) was 20%, the “% action, Stellaria media” value (Stellaria media) was 20% and the “% action, Barley” value (winter barley) was 10%. The “% action, Raphnus raphan.” value (Raphnus raphanistrum) was 20%, the “% action, Viola tric.” value (Viola tricolor) was 0% and the “% action, Galium aparine” value (Galium aparine; I1 500, dicamba 30, mixture 500 + 30 g a.i./ha) was 40%. For the same compound, the “% action, Wheat” value (winter wheat; I1 500, dicamba 30, mixture 500 + 30 g a.i./ha, evaluation 20 days after application, 100%=plant has died) was 0%.
For `COc1nc(C)nc(NC(=O)NS(=O)(=O)c2ccccc2OCCCl)n1` [triasulfuron], the “% action, Gal. apar.” value (Galium aparine; I1 250, triasulfuron 3.5, mixture 250 + 3.75 g a.i./ha) was 70%, the “% action, Matr. cham.” value (Matricaria chamomilla) was 95% and the “% action, W. wheat” value (winter wheat; I1 250, triasulfuron 3.5, mixture 250 + 3.75 g a.i./ha, evaluation 10 days after application) was 0%. The “% action, Polyg. conv.” value (Polygonum convolvulus) was 80%, the “% action, Lamium purpur.” value (Lamium purpureum) was 90% and the “% action, H. wheat” value (hard wheat) was 0%. The “% action, Kochia scop.” value (Kochia scoparia) was 95% and the “% action, Caps. bursa-past.” value (Capsella bursa-pastoris) was 98%.

Source: US20040209775A1, “Herbicidal composition” (priority 2001, published 2004)
